Laboratory results taken from ChEMBL document CHEMBL5678818, “Discovery of potent SOS1 inhibitors that block RAS activation via disruption of the RAS-SOS1 interaction” (Proc Natl Acad Sci U S A, 2019).

What was measured:
[1] = target: T1, Bone morphogenetic protein receptor type-2 (Homo sapiens) (UniProt Q13873); assay: Inhibition of BMPR2 (unknown origin) assessed as residual activity at 1000 nM by KINOMEscan analysis relative to control
T1 sequence (whole entry): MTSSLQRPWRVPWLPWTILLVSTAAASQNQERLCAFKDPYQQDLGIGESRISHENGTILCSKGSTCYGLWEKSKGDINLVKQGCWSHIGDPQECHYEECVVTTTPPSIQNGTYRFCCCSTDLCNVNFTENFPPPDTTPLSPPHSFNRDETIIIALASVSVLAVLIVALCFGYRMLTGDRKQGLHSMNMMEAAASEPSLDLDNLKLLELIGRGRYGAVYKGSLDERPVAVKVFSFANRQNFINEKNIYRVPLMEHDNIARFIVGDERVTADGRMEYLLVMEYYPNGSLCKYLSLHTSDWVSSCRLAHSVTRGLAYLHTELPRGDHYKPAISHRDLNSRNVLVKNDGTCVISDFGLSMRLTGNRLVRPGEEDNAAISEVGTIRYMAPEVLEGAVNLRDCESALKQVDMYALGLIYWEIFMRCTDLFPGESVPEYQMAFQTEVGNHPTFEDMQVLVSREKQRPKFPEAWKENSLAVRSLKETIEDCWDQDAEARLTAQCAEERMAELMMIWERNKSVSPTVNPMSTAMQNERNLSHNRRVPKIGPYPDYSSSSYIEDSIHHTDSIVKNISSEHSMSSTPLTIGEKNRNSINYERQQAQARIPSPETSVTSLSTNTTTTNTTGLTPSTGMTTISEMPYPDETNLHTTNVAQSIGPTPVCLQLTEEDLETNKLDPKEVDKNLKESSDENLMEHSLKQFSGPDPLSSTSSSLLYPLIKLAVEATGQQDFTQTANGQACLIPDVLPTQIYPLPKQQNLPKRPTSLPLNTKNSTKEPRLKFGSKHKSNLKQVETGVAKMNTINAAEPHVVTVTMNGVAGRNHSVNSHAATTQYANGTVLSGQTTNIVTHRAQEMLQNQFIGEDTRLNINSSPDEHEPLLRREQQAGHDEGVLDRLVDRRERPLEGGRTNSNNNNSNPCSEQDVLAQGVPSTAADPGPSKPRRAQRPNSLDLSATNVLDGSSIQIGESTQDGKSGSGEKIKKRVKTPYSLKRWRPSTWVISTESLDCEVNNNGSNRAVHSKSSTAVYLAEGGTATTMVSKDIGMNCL

[2] = tested on: Mast/stem cell growth factor receptor Kit (Homo sapiens), P10721 [D816H]; assay: Inhibition of KIT D816H mutant (unknown origin) assessed as residual activity at 1000 nM by KINOMEscan analysis relative to control
[3] = target: T2, Dual specificity mitogen-activated protein kinase kinase 3 (Homo sapiens) (UniProt P46734); assay: Inhibition of MEK3 (unknown origin) assessed as residual activity at 1000 nM by KINOMEscan analysis relative to control
T2 sequence (whole entry): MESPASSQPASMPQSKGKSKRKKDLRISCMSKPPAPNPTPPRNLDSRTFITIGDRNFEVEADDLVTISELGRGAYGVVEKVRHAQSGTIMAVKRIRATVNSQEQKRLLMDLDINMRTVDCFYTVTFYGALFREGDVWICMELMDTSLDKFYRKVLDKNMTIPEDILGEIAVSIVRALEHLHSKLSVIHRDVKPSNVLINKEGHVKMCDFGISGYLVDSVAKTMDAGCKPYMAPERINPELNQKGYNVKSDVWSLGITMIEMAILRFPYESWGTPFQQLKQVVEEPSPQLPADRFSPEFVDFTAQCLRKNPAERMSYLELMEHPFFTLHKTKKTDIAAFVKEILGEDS

[4] = target: Non-receptor tyrosine-protein kinase TYK2 (Homo sapiens) (UniProt P29597); assay: Inhibition of TYK2 JH1 catalytic domain (unknown origin) assessed as residual activity at 1000 nM by KINOMEscan analysis relative to control
Non-receptor tyrosine-protein kinase TYK2 (Homo sapiens), sequence (P29597 whole entry, the tested form may be a part): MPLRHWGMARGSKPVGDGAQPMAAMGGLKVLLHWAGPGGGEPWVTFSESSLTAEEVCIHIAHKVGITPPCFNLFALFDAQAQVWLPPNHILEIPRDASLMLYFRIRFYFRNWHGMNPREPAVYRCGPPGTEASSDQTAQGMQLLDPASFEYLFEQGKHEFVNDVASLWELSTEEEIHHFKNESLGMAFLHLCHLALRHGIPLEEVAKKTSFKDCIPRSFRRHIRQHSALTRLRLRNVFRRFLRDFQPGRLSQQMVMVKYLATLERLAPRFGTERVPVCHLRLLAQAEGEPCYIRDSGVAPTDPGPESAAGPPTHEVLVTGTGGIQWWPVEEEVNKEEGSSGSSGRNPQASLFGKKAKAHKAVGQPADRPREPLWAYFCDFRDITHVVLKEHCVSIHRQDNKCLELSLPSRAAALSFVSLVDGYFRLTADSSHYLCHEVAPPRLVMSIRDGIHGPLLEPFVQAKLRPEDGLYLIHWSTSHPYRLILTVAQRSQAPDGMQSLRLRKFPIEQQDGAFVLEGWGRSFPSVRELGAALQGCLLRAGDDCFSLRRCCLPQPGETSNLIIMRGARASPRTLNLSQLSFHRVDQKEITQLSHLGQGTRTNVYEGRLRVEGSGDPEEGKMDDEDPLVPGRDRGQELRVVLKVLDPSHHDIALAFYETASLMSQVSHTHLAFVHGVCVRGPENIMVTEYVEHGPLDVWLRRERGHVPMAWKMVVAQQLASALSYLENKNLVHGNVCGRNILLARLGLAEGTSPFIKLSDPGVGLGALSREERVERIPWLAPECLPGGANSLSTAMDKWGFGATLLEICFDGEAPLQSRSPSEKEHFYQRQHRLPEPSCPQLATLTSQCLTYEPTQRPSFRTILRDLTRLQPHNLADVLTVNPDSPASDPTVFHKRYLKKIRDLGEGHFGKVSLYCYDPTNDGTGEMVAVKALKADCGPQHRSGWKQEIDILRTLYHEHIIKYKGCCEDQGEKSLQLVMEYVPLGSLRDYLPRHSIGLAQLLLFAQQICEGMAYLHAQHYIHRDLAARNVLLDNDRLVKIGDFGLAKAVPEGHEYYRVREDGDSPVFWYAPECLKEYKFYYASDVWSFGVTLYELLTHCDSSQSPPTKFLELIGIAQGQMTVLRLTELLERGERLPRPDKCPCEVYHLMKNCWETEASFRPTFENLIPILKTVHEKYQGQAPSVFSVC

Mast/stem cell growth factor receptor Kit (Homo sapiens), P10721 [D816H], sequence (P10721 whole entry D816H): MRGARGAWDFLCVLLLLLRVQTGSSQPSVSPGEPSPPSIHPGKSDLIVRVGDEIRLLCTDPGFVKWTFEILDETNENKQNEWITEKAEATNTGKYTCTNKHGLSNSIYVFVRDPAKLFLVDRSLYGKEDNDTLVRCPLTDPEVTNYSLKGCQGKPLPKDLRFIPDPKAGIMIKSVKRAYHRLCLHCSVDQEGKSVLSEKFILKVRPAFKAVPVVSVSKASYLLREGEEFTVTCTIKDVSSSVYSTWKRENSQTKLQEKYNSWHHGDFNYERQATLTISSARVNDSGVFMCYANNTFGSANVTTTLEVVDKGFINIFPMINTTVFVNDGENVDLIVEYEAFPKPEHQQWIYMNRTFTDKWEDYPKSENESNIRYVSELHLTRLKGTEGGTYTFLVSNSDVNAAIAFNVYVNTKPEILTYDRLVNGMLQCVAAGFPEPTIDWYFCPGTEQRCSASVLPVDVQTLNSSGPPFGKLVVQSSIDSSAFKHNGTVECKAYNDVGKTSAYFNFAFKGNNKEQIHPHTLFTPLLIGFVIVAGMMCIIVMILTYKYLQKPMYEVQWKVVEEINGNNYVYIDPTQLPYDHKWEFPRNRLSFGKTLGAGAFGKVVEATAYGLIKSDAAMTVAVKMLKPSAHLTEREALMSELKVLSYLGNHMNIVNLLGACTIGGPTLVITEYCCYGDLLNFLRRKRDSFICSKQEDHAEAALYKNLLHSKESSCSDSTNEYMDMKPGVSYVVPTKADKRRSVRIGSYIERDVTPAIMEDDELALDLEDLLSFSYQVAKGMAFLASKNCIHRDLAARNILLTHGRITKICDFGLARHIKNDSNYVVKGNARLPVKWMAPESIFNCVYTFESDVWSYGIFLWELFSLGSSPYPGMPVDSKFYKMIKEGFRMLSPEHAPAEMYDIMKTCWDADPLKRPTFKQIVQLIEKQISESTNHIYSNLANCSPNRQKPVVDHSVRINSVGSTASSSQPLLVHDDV

SMILES | Activity [1] [%] | Activity [2] [%] | Activity [3] [%] | Activity [4] [%]
COc1cc2nc(C)nc(N[C@H](C)c3cccc(-c4cn[nH]c4)c3)c2cc1OC | 83 | 88 | 54 | 77
COc1cc2ncnc(N[C@H](C)c3cccc4ccccc34)c2cc1OC | 89 | 97 | 100 | 82
